Measured values reported in US20240263068A1, “AIE Fluorescent Probe Composition, Method and Device for Measuring CMC of Surfactant Solution, and Method and Device for CMC Determination” (Moon House (China) Co., Ltd., priority 2022, published 2024).
Where two headings read alike, the source gives them in different places.

Tests used:
[1] = Description: It is generally believed that the type or polarity of a solvent almost has no influence on the fluorescence absorption or emission spectrum of the HPS.
[2] = Fluorescence emission peaks excited by 365 nm ultraviolet light; type: physicochemical
Description: That is, the wavelength range of 400-550 nm within which the emission peaks of the fluorescent whitening agent CBS occur is avoided. In this way, the interference of the fluorescent whitening agent with the CMC determination result may be avoided.

[3] = cited from earlier work

SMILES: CCCCCO [n-pentanol]
- Solubility of HPS to Solvent [1]: slightly soluble

SMILES: O=S(=O)([O-])c1ccccc1C=Cc1ccc(-c2ccc(C=Cc3ccccc3S(=O)(=O)[O-])cc2)cc1.[Na+].[Na+] [CBS]
- Wavelength range of emission peaks ([2]; fluorescent whitening agent in detergent): 400-550 nm

SMILES: C[S+](C)[O-] [DMSO]
- Solubility of HPS to Solvent [1]: soluble

SMILES: c1ccc2ncccc2c1 [Quinoline]
- Solubility of HPS to Solvent [1]: soluble

SMILES: c1ccc(C2=C(c3ccccc3)[Si](c3ccccc3)(c3ccccc3)C(c3ccccc3)=C2c2ccccc2)cc1 [HPS, 1,1,2,3,4,5-hexaphenylsilole]
- Solubility of HPS ([3]; alcohols such as methanol): slightly soluble
- Solubility of HPS ([3]; good solvents such as acetonitrile, tetrahydrofuran and chloroform): highly soluble
- Solubility of HPS ([3]; water): completely insoluble
- Solubility of HPS powder in water [1]: insoluble in water
- Fluorescence emission peak, sharp with high intensity ([2]; excited by 365 nm): 350-370 nm
- Fluorescence emission peak, wide and short with relatively low intensity ([2]; excited by 365 nm): 720-740 nm

SMILES: CN1CCCC1=O [NMP]
- Solubility of HPS to Solvent [1]: soluble
